In BindingDB's records for doi:10.1016/j.bmc.2007.10.061 (Osi Pharmaceuticals, 2008):

Tests used:
[1] = target: 3-phosphoinositide-dependent protein kinase 1 (PDPK1) (Homo sapiens) (UniProt O15530); test: Inhibition of PDK1
[2] = target: Mitogen-activated protein kinase 1 (ERK2) (Homo sapiens) (UniProt P28482); test: Inhibition of MAPK2
Chain of Mitogen-activated protein kinase 1 (ERK2) (Homo sapiens) (P28482 whole entry, looked up): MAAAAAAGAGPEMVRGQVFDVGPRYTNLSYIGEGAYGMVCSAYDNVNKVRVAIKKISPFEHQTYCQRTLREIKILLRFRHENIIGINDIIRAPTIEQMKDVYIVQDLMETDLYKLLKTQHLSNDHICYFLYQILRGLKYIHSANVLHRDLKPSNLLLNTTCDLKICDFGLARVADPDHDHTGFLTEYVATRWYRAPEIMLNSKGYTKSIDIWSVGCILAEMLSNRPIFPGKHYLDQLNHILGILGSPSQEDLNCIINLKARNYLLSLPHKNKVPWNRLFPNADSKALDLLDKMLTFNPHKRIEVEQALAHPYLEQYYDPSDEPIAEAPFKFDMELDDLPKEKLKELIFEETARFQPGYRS

Nc1nccn2c1c(-c1ccc3ccc(-c4ccccc4)nc3c1)nc2[C@H]1C[C@@H](CN2CCC2)C1 [cis-3-(3-(azetidin-1-ylmethyl)cyclobutyl)-1-(2-phenylquinolin-7-yl)imidazo[1,5-a]pyrazin-8-amine]
IC50 [1]: > 30 µM | IC50 [2]: > 10 µM
